In article PMC11381475, “Biopharmaceutical profiling of anti-infective sanggenons from Morus alba root bark for inhalation administration” (International Journal of Pharmaceutics: X, 2024):
Entries after “also recorded” stand apart in the source; their conditions may differ.

Columns and labels:
in vitro = details: human
Calu-3 cells [1] = details: cited from earlier work
16HBE14o- cells = details: cited from earlier work
NHBE cells = details: cited from earlier work
[2] = UV-metric pKa measurement (SiriusT3); type: physicochemical; details: experimental, SiriusT3, 25 °C, mean ± S.D.
Procedure: Experimental pKa (−log10 of the acid dissociation equilibrium constant) values of SGC and SGD were evaluated using the UV-metric pKa measurement method of the SiriusT3 automated titrator instrument and the corresponding software SiriusT3Control and SiriusT3Refine (Pion Inc., Billerica, USA). The SiriusT3 apparatus uses a deuterium lamp to determine the UV/Vis absorbance spectrum of the test solutions at each pH point. The standard aqueous UV-metric pKa measurement protocol was conducted according to manufacturer instructions. […] This was mixed with 25 μL phosphate buffer (14.7 mM K2HPO4 and 0.15 M KCl in MilliQ water) and diluted with 1.5 mL ionic strength-adjusted water (ISA water ≡ 0.15 M KCl in MilliQ water). The subsequent acid/base titration and measurement of UV absorbance was automatically performed by the SiriusT3 at 25.0 ± 0.5 °C. […] Turbidity was monitored by a turbidity sensor to ensure the absence of precipitation of the test compounds during the experiment, since accurate pKa measurements are limited to fully dissolved substances. In case turbidity occurred, individual titrations were not used for further analysis, resulting in a total of 11 analysable titrations across the 5 replicate samples for both SGC and SGD.

[3] = potentiometric logP, water-octanol (SiriusT3); type: physicochemical; details: experimental, mean ± S.D., n = 3
Procedure: LogP (partition coefficient) evaluation was performed via SiriusT3. The potentiometric logP measurement relies on assessing the partition profile of the test substance within a two-phase water-octanol solvent system. Changes in the relative volume ratio of octanol to water lead to shifts in the apparent pKa, resulting from the partitioning between non-ionised and ionised forms. LogP values were then estimated based on these assessments.

Calu-3 cells [4] = test: Calu-3 cell uptake, FIA-TOFMS; type: in vitro ADME, human; details: 50 µg/mL; for Concentration [pg/µL] 1 in cell extract / Normalized concentration [pg/cell] 1: replicate 1; for Concentration [pg/µL] 2 in cell extract / Normalized concentration [pg/cell] 2: replicate 2; for Concentration [pg/µL] 3 in cell extract / Normalized concentration [pg/cell] 3: replicate 3
Procedure: At 4, 12, and 24 h after addition, cell extracts were generated in triplicates. To that end, the medium was aspirated from the respective wells, and cells were washed with pre-warmed ammonium carbonate solution (75 mM, pH 7.4, 37 °C). Immediately after removal of the wash solvent, 300 μL cold extraction solvent (40:40:20 acetonitrile:methanol:water, −20 °C) was added per well to lyse cells in situ and stop the enzymatic activity. The bottom of each well was subsequently scraped and the cell extracts were transferred to 96-well storage plates and stored at −80 °C until analysis. […] Quantification of SGC and SGD was performed using flow-injection time-of-flight mass spectrometry (FIA-TOFMS) in negative ion mode as described previously ([Fuhrer et al., 2011]). SGC and SGD signals were identified by matching accurate masses (for both [M-H]- at 707.2127 m/z). To account for possible influences of the complex matrix in the cell extract samples, a matrix-matched series of calibration samples were prepared, in which increasing concentrations of SGC were spiked into extracts of cells that had not previously been treated with either SGC or SGD. The calibration samples were injected alongside the cell extract samples and used to establish a calibration function using linear regression. The ion intensities measured were converted into SGC and SGD concentrations and normalized by the cell number in each sample, which was determined at each time point in separate cell cultures using trypan blue staining and cell counting in a Thermo Fisher Countess II Automated cell counter after trypsin-mediated cell detachment. This procedure eventually yielded estimates of SGC and SGD contents in pg/cell.

Calu-3 monolayer [5] = test: MTT assay on Calu-3 monolayer after permeability study; type: cell-based, human; details: after B-A permeability study
Procedure: To assess potential cytotoxic effects on the monolayer, cell culture medium (10% FBS, 1% P/S) containing 0.45 mg/mL MTT reagent was added to the inserts (300 µL) and wells (1500 µL). Cells treated with fluorescein (40 µg/mL) served as a control. Samples were then incubated for 3.5 hours at 37°C. Following incubation, the MTT solution was removed, and DMSO was added to dissolve the formazan crystals (300 µL for inserts; 1500 µL for wells). The plates were incubated on a shaking platform at 200 rpm in the absence of light for 30 minutes. Subsequently, 100 µL samples from each well were pipetted into a 96-well plate, and the absorbance was measured at 570 nm using an Epoch 2 spectrophotometer.

SARS-CoV-2 = test system: SARS-CoV-2; design: method as in Wasilewicz et al., 2023; details: reported to be based on inhibition of the viral main protease, ref Wasilewicz et al., 2023; read-out: anti-SARS-CoV-2 activity IC50; cited from earlier work
[6] = mice, doses up to 100 mg/kg, ref Langeder et al., 2023b; cited from earlier work
Calu-3 cells [7] = test: Calu-3 cell viability, MTT assay; details: MTT
Calu-3 monolayer [8] = test: bidirectional permeability across Calu-3 monolayer; details: for concentration in the acceptor chamber (B-A): n = 3
Calu-3 monolayer [9] = test: TEER of Calu-3 monolayer before and after permeability study
[10] = control experiments for serum binding and adsorption to plastic
[11] = pH-dependent thermodynamic solubility, miniaturized shake-flask method, UPLC-PDA

Compound: COCCc1ccc(OCC(O)CNC(C)C)cc1 (stereo not drawn) [metoprolol]
- Papp A→B at 2 h, 500 μM (in vitro): 25.4 ± 6.9 ×10⁻⁶ cm/s
- Papp B→A at 2 h, 500 μM (in vitro): 23.3 ± 4.9 ×10⁻⁶ cm/s
- Papp (Calu-3 cells [1]): 10.3 ± 0.0 × 10^−6 cm/s
- Papp (16HBE14o- cells): 24.5 ± 2.5 × 10^−6 cm/s
- Papp (NHBE cells): 11.3 ± 0.7 × 10^−6 cm/s

Compound: sanggenon D [SGD]
- pKa 1 [2]: 3.27 ± 0.37
- pKa 2 [2]: 6.37 ± 0.13
- pKa 3 [2]: 7.25 ± 0.32
- pKa 4 [2]: 7.99 ± 0.26
- pKa 5 [2]: 8.99 ± 0.08
- pKa 6 [2]: 9.94 ± 0.04
- pKa 7 [2]: 10.78 ± 0.01
- pKa 8 [2]: 12.04 ± 0.07
- logP [3]: 2.92 ± 0.07
- intracellular content, Mean [pg/cell] (Calu-3 cells [4]; 4 h): 0.3 ± 0.2 pg/cell
- Concentration [pg/µL] 1 in cell extract (Calu-3 cells [4]; 4 h): 449 pg/µL
- Normalized concentration [pg/cell] 1 (Calu-3 cells [4]; 4 h): 0.23 pg/cell
- Concentration [pg/µL] 2 in cell extract (Calu-3 cells [4]; 4 h): 281 pg/µL
- Normalized concentration [pg/cell] 2 (Calu-3 cells [4]; 4 h): 0.14 pg/cell
- Concentration [pg/µL] 3 in cell extract (Calu-3 cells [4]; 4 h): 1158 pg/µL
- Normalized concentration [pg/cell] 3 (Calu-3 cells [4]; 4 h): 0.60 pg/cell
- intracellular content, Mean [pg/cell] (Calu-3 cells [4]; 4 h, listed as Sanggenon D): 0.32 pg/cell
- intracellular content, Mean [pg/cell] (Calu-3 cells [4]; 12 h): 0.54 pg/cell
- Concentration [pg/µL] 1 in cell extract (Calu-3 cells [4]; 12 h): 1137 pg/µL
- Normalized concentration [pg/cell] 1 (Calu-3 cells [4]; 12 h): 0.57 pg/cell
- Concentration [pg/µL] 2 in cell extract (Calu-3 cells [4]; 12 h): 1116 pg/µL
- Normalized concentration [pg/cell] 2 (Calu-3 cells [4]; 12 h): 0.55 pg/cell
- Concentration [pg/µL] 3 in cell extract (Calu-3 cells [4]; 12 h): 1014 pg/µL
- Normalized concentration [pg/cell] 3 (Calu-3 cells [4]; 12 h): 0.50 pg/cell
- intracellular content, Mean [pg/cell] (Calu-3 cells [4]; 24 h): 0.69 pg/cell
- Concentration [pg/µL] 1 in cell extract (Calu-3 cells [4]; 24 h): 1552 pg/µL
- Normalized concentration [pg/cell] 1 (Calu-3 cells [4]; 24 h): 0.59 pg/cell
- Concentration [pg/µL] 2 in cell extract (Calu-3 cells [4]; 24 h): 2206 pg/µL
- Normalized concentration [pg/cell] 2 (Calu-3 cells [4]; 24 h): 0.84 pg/cell
- Concentration [pg/µL] 3 in cell extract (Calu-3 cells [4]; 24 h): 1671 pg/µL
- Normalized concentration [pg/cell] 3 (Calu-3 cells [4]; 24 h): 0.63 pg/cell
- cytotoxic effects on Calu-3 monolayer after permeability study (MTT) (Calu-3 monolayer [5]): Neither batch 1 nor batch 2 showed a decrease in cell viability; also recorded: no cytotoxic effects
- IC50 (SARS-CoV-2): 13.9 µM
- serum and tissue concentrations after oral administration [6]: low serum and tissue concentrations
- cytotoxic effects (Calu-3 cells [7]; 50 μg/mL, 4-h and 12-h incubation): no cytotoxic effects were observed
- CC50 (Calu-3 cells [7]; Calu-3 cells, 24 h exposure): 120.5 µg/mL
- amount detected in the acceptor chamber (B-A) (Calu-3 monolayer [8]; B-A, 2 h, isolated SGD or extracts): < 0.6%
- concentration in the acceptor chamber (B-A) (Calu-3 monolayer [8]; SGD after applying MA21 600 μg/mL, B-A, 2 h): 7.9 ± 4.2 ng/mL
- concentration in the acceptor chamber (B-A) (Calu-3 monolayer [8]; SGD after applying MA60 100 μg/mL, B-A, 2 h): 10.6 ± 5.7 ng/mL
- permeability across intact Calu-3 monolayers (Calu-3 monolayer [8]; abstract statement): no measurable permeability
- evidence for permeability of SGC or SGD (Calu-3 monolayer [8]; applied as extracts MA60 (100 μg/mL) and MA21 (600 μg/mL), 2 h): Neither by applying the isolated compounds nor the extracts MA60 and MA21, any evidence for the permeability of SGC or SGD was detectable
- concentration in the acceptor chamber (B-A) (Calu-3 monolayer [8]; isolated SGD 20 μg/mL applied, B-A, 2 h): 35.4 ± 15.1 ng/mL
- detection in the acceptor chamber after 2 h of incubation (A-B direction) (Calu-3 monolayer [8]; isolated compound 20 μg/mL, A-B): could not be detected
- change in TEER during permeability study, B-A direction (Calu-3 monolayer [9]; 20 µg/mL in basolateral chamber, 2 h, Calu-3 batch 1): significant decrease in TEER values; also recorded: loss in TEER
- TEER after 24 h of incubating with medium at 37 °C (Calu-3 monolayer [9]; B-A directed test wells after permeability study): showed a recovery in TEER; also recorded: recovery to initial values
- binding to serum proteins [10]: no indication that SGC or SGD bind to serum proteins
- pH 1.2 solubility ([11]; compound within extract MA21, pH 1.2): < LOQ
- pH 4.5 solubility ([11]; compound within extract MA21, pH 4.5): < LOQ
- pH 6.8 solubility ([11]; compound within extract MA21, pH 6.8): < LOQ
- pH 7.4 solubility ([11]; compound within extract MA21, pH 7.4): < LOQ
- pH 1.2 solubility ([11]; compound within extract MA60, pH 1.2): 20.6 µg/mL
- pH 4.5 solubility ([11]; compound within extract MA60, pH 4.5): 19.7 µg/mL
- pH 6.8 solubility ([11]; compound within extract MA60, pH 6.8): 56.8 µg/mL
- pH 7.4 solubility ([11]; compound within extract MA60, pH 7.4): 94.9 µg/mL
- pH 1.2 solubility ([11]; isolated compound, HCl buffer pH 1.2, 24 h, 24 °C): 111 µg/mL
- pH 4.5 solubility ([11]; isolated compound, acetate buffer pH 4.5, 24 h, 24 °C): 121 µg/mL
- pH 6.8 solubility ([11]; isolated compound, phosphate buffer pH 6.8, 24 h, 24 °C): 304 µg/mL
- pH 7.4 solubility ([11]; isolated compound, phosphate buffer pH 7.4, 24 h, 24 °C): 493 µg/mL
